Laboratory results published in patent US20230310636A1, “COMBINATION THERAPIES FOR TREATMENT OF CANCER WITH THERAPEUTIC BINDING MOLECULES” (MedImmune Limited, priority 2022, published 2023).

Key:
[1] = tested on: MDA-MB-468 breast cancer xenografts; test: MDA-MB-468 breast cancer xenograft, ADC with AZD5305; format: in vivo, mice; conditions: AZD5305 individually, 0.1 mg/kg and 1 mg/kg, once daily oral, 28 days; FIG. 7
Procedure: MDA-MB-468 cells were injected 5×10^6 per mouse into the mammary fat pad of female CB-17 SCID mice. […] Tumor and body weight measurements were recorded twice weekly for the duration of the study.
All animal experiments were conducted in a facility accredited by the Association for Assessment and Accreditation of Laboratory Animal Care under the guidelines of AstraZeneca's Institutional Animal Care and Use Committee and appropriate animal research approvals. Cell line xenograft models were established through subcutaneous implantation of cells in 50% Matrigel (Corning, Corning, NY, USA) in either the right mammary fat pad (MX-1, MDA-MB-468) or left flank (HT29, HT29-huB7-H4) of female CB-17 mice (Envigo, Frederick, MD, USA). When tumor volume reached 150-200 mm^3, mice were randomized and given a single intravenous (IV) injection of vehicle control (20 mM histidine, pH 6; 240 mM sucrose; 0.02% PS-80) or ADCs. Body weight and tumor measurements were determined once or twice weekly, and tumor volume was calculated with the formula

[2] = preclinical models; cited from earlier work

## CCc1cc2ncc(CN3CCN(c4ccc(C(=O)NC)nc4)CC3)cc2[nH]c1=O [AZD5305, 5-[4-[(7-ethyl-6-oxo-5H-1,5-naphthyridin-3-yl)methyl]piperazin-1-yl]-N-methyl-pyridine-2-carboxamide]
[1]
  anti-tumor activity in vivo (tumor size over time): little to no anti-tumor activity
[2]
  hematological toxicity in comparison with non-selective PARPi: reduced hematological toxicity
